In patent US20260297129A1, “PEPTIDES AS SELECTIVE IL-23 RECEPTOR INHIBITORS” (SANOFI, priority 2023, published 2026):
≈ marks a conversion by molar mass, not a printed value. Where two headings read alike, the source gives them in different places. Numbered stars: 1 amine (or outer) side, 2 acyl side, 3 side chain; on linkers, the order of the positions; unused ones are H or OH. Bridge positions count the residues as written; N and C are the ends. Square brackets hold non-standard residues; d marks the D form. Peptide text beside a SMILES is read from it. * marks the point of attachment. Lys(Me,(CH2)4NMe(CH2)5CO) = CN(CCCCCC(=O)[*:3])CCCCN(C)CCCC[C@H](N[*:1])C(=O)[*:2]; X2 = O=C(Cc1ccc(-c2ccc(CC(=O)[*:2])cc2)cc1)[*:1]; Trp(7-Me) = Cc1cccc2c(C[C@H](N)C(=O)O)c[nH]c12; Sebacoyl = O=C(CCCCCCCCC(=O)[*:2])[*:1]; NH(CH2)9CO = O=C(CCCCCCCCCN[*:1])[*:2]; 2Nal = N[C@@H](Cc1ccc2ccccc2c1)C(=O)O; Suberoyl = O=C(CCCCCCC(=O)[*:2])[*:1]; X1 = O=C(CCCCCCCCCCCCCN[*:1])[*:2]; 3Pal = N[C@@H](Cc1cccnc1)C(=O)O; 12Ado = NCCCCCCCCCCCC(=O)O; AEEEA = NCCOCCOCCOCC(=O)O; Thp = NC1(C(=O)O)CCOCC1; Me2NCH2CH2 = CN(C)CC*; Aib = CC(C)(N)C(=O)O; Aoc = NCCCCCCCC(=O)O; Sar = CNCC(=O)O

Assays:
[1] = test system: IL-23 induced STAT3 signaling (IL-23 receptor) in HEK-Blue IL-23 cells; test: Inhibition of IL-23 induced STAT3 signaling in HEK-Blue IL-23 cells, SEAP reporter (Table 9); assay type: cell-based; details: human IL23 0.25 ng/ml, overnight, read-out: Inhibition of IL-23 induced pSTAT3 (IC50 nM)
Method in brief: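 STAT3-driven SEAP output measured at OD 620–655 nm after 45 min QUANTI-Blue development of supernatant, with dose-response fits. Peptides were given 60 min ahead of 0.25 ng/ml (final) human IL-23, followed by overnight culture at 37 °C; 10,000 HEK-Blue IL-23 cells per well.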

[2] = Protease stability in simulated gastric fluids (FaSSGF) (Table 7); assay type: in vitro ADME; details: fassgf with pepsin, 60 min, 37° C., read-out: Remaining percentage of peptide compound, FaSSGF 60 (min)
Method in brief: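 Peptides at 1 μM final were incubated at 37 °C in simulated gastric fluid with pepsin (320 mg per 100 mL SGF concentrate). Samples were quenched with ethanol (0.1% HCOOH) at 0, 60, 120 and 240 min and analysed by LC-MS/MS. Percent remaining is the peak area relative to T0 (100%).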

[3] = Solubility of peptide compounds in buffer formulations (Table 5); assay type: physicochemical; details: target 1 mg/ml
Method in brief: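 Solubility was quantified by UHPLC-UV, comparing 1:10-diluted filtrate peak areas with a DMSO reference standard and correcting for extinction coefficients. Samples were prepared from dried DMSO stock at 1 mg/mL nominal in pH 1.2 HCl, pH 6.5 or pH 7.4 phosphate (50 mM), and agitated 2 h.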

[4] = Protease stability in simulated intestinal fluids (FaSSIF) (Table 7); assay type: in vitro ADME; details: fassif with pancreatin, 37° C.; for remaining at 1 h, 1 µM: 60 min, read-out: Remaining percentage of peptide compound, FaSSIF 60 (min); for remaining at 2 h, 1 µM: 120 min, read-out: Remaining percentage of peptide compound, FaSSIF 120 (min); for remaining at 4 h, 1 µM: 240 min, read-out: Remaining percentage of peptide compound, FaSSIF 240 (min)
Method in brief: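 Percent parent remaining was derived from LC-MS/MS peak areas normalised to time 0, set at 100%. Sampling at 0, 60, 120 and 240 min, quenched in ethanol with 0.1% HCOOH. Final peptide 1 μM, 37° C, SIF containing pancreatin.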

[5] = Buffer pH 1.1 (head; method: 50 mM HCl pH 1.2), 2 h agitation, read-out: Solubility, Buffer pH 1.1
[6] = aqueous buffer, 50 mM phosphate buffer pH 6.5, 2 h agitation, read-out: Solubility, Buffer pH 6.5
[7] = aqueous buffer, 50 mM phosphate buffer pH 7.4, 2 h agitation, read-out: Solubility, Buffer pH 7.4

## CC(=O)NCCCC[C@@H]1NC(=O)[C@H](Cc2c[nH]c3c(C)cccc23)NC(=O)[C@@H](NC(C)=O)CCCCN(C)CCCCN(C)CCCC[C@@H](C(=O)N[C@@H](CC(N)=O)C(=O)N[C@@H](Cc2cccnc2)C(=O)N(C)CC(N)=O)NC(=O)C(C)(C)NC(=O)[C@@H](Cc2ccc3ccccc3c2)NC(=O)[C@H](Cc2ccc(OCCN(C)C)cc2)NC(=O)C2(CCOCC2)NC1=O [compound 13]
[1]
  IC50: 0.17 nM
[2]
  remaining at 1 h, 1 µM: 90%
[3]; [5]
  solubility at 2 h: ≥ 1190 µg/mL
[3]; [6]
  solubility at 2 h: ≥ 1180 µg/mL
[3]; [7]
  solubility at 2 h: ≥ 1230 µg/mL
[4]
  remaining at 1 h, 1 µM: 90%
  remaining at 2 h, 1 µM: 89%
  remaining at 4 h, 1 µM: 88%

## Cc1cccc2c(C[C@@H]3NC(=O)CCCCCCCCCCCNC(=O)CC[C@@H](C(=O)N[C@@H](CC(N)=O)C(=O)N[C@@H](Cc4cccnc4)C(=O)N(C)CC(N)=O)NC(=O)C(C)(C)NC(=O)[C@H](Cc4ccc5ccccc5c4)NC(=O)[C@H](Cc4ccc(OCCN(C)C)cc4)NC(=O)C4(CCOCC4)NC(=O)[C@H](CCC(N)=O)NC3=O)c[nH]c12 [compound 2] ([12Ado][Trp(7-Me)]Q[Thp]Y(Me2NCH2CH2)[2Nal][Aib]EN[3Pal][Sar]-NH2; lactam N-8)
[1]
  IC50: 0.28 nM
[2]
  remaining at 1 h, 1 µM: 73%
[3]; [5]
  solubility at 2 h: ≥ 1140 µg/mL
[3]; [6]
  solubility at 2 h: 220 µg/mL (≈ 135 µM)
[3]; [7]
  solubility at 2 h: 10 µg/mL (≈ 6.13 µM)
[4]
  remaining at 1 h, 1 µM: 100%
  remaining at 2 h, 1 µM: 94%
  remaining at 4 h, 1 µM: 94%

## Cc1cccc2c(C[C@@H]3NC(=O)CCCCCCCCC(=O)NCCCC[C@@H](C(=O)N[C@@H](CC(N)=O)C(=O)N[C@@H](Cc4cccnc4)C(=O)N(C)CC(N)=O)NC(=O)C(C)(C)NC(=O)[C@H](Cc4ccc5ccccc5c4)NC(=O)[C@H](Cc4ccc(OCCN(C)C)cc4)NC(=O)C4(CCOCC4)NC(=O)[C@H](CCC(N)=O)NC3=O)c[nH]c12 [compound 11] ([Trp(7-Me)]Q[Thp]Y(Me2NCH2CH2)[2Nal][Aib]KN[3Pal][Sar]-NH2; linker N-7 via Sebacoyl)
[1]
  IC50: 0.28 nM
[2]
  remaining at 1 h, 1 µM: 98%
[3]; [5]
  solubility at 2 h: ≥ 940 µg/mL
[3]; [6]
  solubility at 2 h: 330 µg/mL (≈ 204 µM)
[3]; [7]
  solubility at 2 h: 500 µg/mL (≈ 309 µM)
[4]
  remaining at 1 h, 1 µM: 74%
  remaining at 2 h, 1 µM: 73%
  remaining at 4 h, 1 µM: 69%

## Cc1cccc2c(C[C@@H]3NC(=O)CCCCCCCNC(=O)CC[C@@H](C(=O)N[C@@H](CC(N)=O)C(=O)N[C@@H](Cc4cccnc4)C(=O)N(C)CC(N)=O)NC(=O)C(C)(C)NC(=O)[C@H](Cc4ccc5ccccc5c4)NC(=O)[C@H](Cc4ccc(OCCN(C)C)cc4)NC(=O)C4(CCOCC4)NC(=O)[C@H](CC(C)C)NC3=O)c[nH]c12 [compound 9] ([Aoc][Trp(7-Me)]L[Thp]Y(Me2NCH2CH2)[2Nal][Aib]EN[3Pal][Sar]-NH2; lactam N-8)
[1]
  IC50: 10.8 nM
[2]
  remaining at 1 h, 1 µM: 59%
[3]; [5]
  solubility at 2 h: ≥ 1160 µg/mL
[3]; [6]
  solubility at 2 h: 260 µg/mL (≈ 167 µM)
[3]; [7]
  solubility at 2 h: 80 µg/mL (≈ 51.3 µM)
[4]
  remaining at 1 h, 1 µM: 74%
  remaining at 2 h, 1 µM: 76%
  remaining at 4 h, 1 µM: 74%

## Cc1cccc2c(C[C@@H]3NC(=O)CCCCCCCCCNC(=O)CC[C@@H](C(=O)N[C@@H](CC(N)=O)C(=O)N[C@@H](Cc4cccnc4)C(=O)N(C)CC(N)=O)NC(=O)C(C)(C)NC(=O)[C@H](Cc4ccc5ccccc5c4)NC(=O)[C@H](Cc4ccc(OCCN(C)C)cc4)NC(=O)C4(CCOCC4)NC(=O)[C@H](CC(C)C)NC3=O)c[nH]c12 [compound 8] ([NH(CH2)9CO][Trp(7-Me)]L[Thp]Y(Me2NCH2CH2)[2Nal][Aib]EN[3Pal][Sar]-NH2; lactam N-8)
[1]
  IC50: 1.85 nM
[2]
  remaining at 1 h, 1 µM: 7%
[3]; [5]
  solubility at 2 h: 20 µg/mL (≈ 12.6 µM)
[3]; [6]
  solubility at 2 h: < 10 µg/mL
[3]; [7]
  solubility at 2 h: < 10 µg/mL
[4]
  remaining at 1 h, 1 µM: 79%
  remaining at 2 h, 1 µM: 79%
  remaining at 4 h, 1 µM: 72%

## Cc1cccc2c(C[C@@H]3NC(=O)CCCCCCC(=O)NCCCC[C@@H](C(=O)N[C@@H](CC(N)=O)C(=O)N[C@@H](Cc4cccnc4)C(=O)N(C)CC(N)=O)NC(=O)C(C)(C)NC(=O)[C@H](Cc4ccc5ccccc5c4)NC(=O)[C@H](Cc4ccc(OCCN(C)C)cc4)NC(=O)C4(CCOCC4)NC(=O)[C@H](CCC(N)=O)NC3=O)c[nH]c12 [compound 12] ([Trp(7-Me)]Q[Thp]Y(Me2NCH2CH2)[2Nal][Aib]KN[3Pal][Sar]-NH2; linker N-7 via Suberoyl)
[1]
  IC50: 0.97 nM
[2]
  remaining at 1 h, 1 µM: 104%
[3]; [5]
  solubility at 2 h: ≥ 1050 µg/mL
[3]; [6]
  solubility at 2 h: ≥ 1100 µg/mL
[3]; [7]
  solubility at 2 h: ≥ 1150 µg/mL
[4]
  remaining at 1 h, 1 µM: 79%
  remaining at 2 h, 1 µM: 77%
  remaining at 4 h, 1 µM: 78%

## Cc1cccc2c(C[C@@H]3NC(=O)COCCOCCOCCNC(=O)CC[C@@H](C(=O)N[C@@H](CC(N)=O)C(=O)N[C@@H](Cc4cccnc4)C(=O)N(C)CC(N)=O)NC(=O)C(C)(C)NC(=O)[C@H](Cc4ccc5ccccc5c4)NC(=O)[C@H](Cc4ccc(OCCN(C)C)cc4)NC(=O)C4(CCOCC4)NC(=O)[C@H](CCC(N)=O)NC3=O)c[nH]c12 [compound 14] ([AEEEA][Trp(7-Me)]Q[Thp]Y(Me2NCH2CH2)[2Nal][Aib]EN[3Pal][Sar]-NH2; lactam N-8)
[1]
  IC50: 1.21 nM
[2]
  remaining at 1 h, 1 µM: 100%
[3]; [5]
  solubility at 2 h: ≥ 1200 µg/mL
[3]; [6]
  solubility at 2 h: ≥ 1280 µg/mL
[3]; [7]
  solubility at 2 h: ≥ 1270 µg/mL
[4]
  remaining at 1 h, 1 µM: 94%
  remaining at 2 h, 1 µM: 90%
  remaining at 4 h, 1 µM: 88%

## CC(=O)NCCCC[C@@H]1NC(=O)[C@H](Cc2c[nH]c3c(C)cccc23)NC(=O)CCCCCN(C)CCCCN(C)CCCC[C@@H](C(=O)N[C@@H](CC(N)=O)C(=O)N[C@@H](Cc2cccnc2)C(=O)N(C)CC(N)=O)NC(=O)C(C)(C)NC(=O)[C@H](Cc2ccc3ccccc3c2)NC(=O)[C@H](Cc2ccc(OCCN(C)C)cc2)NC(=O)C2(CCOCC2)NC1=O [compound 18] ([Trp(7-Me)]K(Ac)[Thp]Y(Me2NCH2CH2)[2Nal][Aib][Lys(Me,(CH2)4NMe(CH2)5CO)]N[3Pal][Sar]-NH2; lactam N-7)
[1]
  IC50: 0.47 nM
[2]
  remaining at 1 h, 1 µM: 100%
[3]; [5]
  solubility at 2 h: ≥ 1060 µg/mL
[3]; [6]
  solubility at 2 h: ≥ 980 µg/mL
[3]; [7]
  solubility at 2 h: ≥ 990 µg/mL
[4]
  remaining at 1 h, 1 µM: 95%
  remaining at 2 h, 1 µM: 88%
  remaining at 4 h, 1 µM: 85%

## Cc1cccc2c(C[C@@H]3NC(=O)Cc4ccc(cc4)-c4ccc(cc4)CC(=O)NCCCC[C@@H](C(=O)N[C@@H](CC(N)=O)C(=O)N[C@@H](Cc4cccnc4)C(=O)N(C)CC(N)=O)NC(=O)C(C)(C)NC(=O)[C@H](Cc4ccc5ccccc5c4)NC(=O)[C@H](Cc4ccc(OCCN(C)C)cc4)NC(=O)C4(CCOCC4)NC(=O)[C@H](CCC(N)=O)NC3=O)c[nH]c12 [compound 15] ([Trp(7-Me)]Q[Thp]Y(Me2NCH2CH2)[2Nal][Aib]KN[3Pal][Sar]-NH2; linker N-7 via X2)
[1]
  IC50: 12 nM
[2]
  remaining at 1 h, 1 µM: 87%
[3]; [5]
  solubility at 2 h: ≥ 990 µg/mL
[3]; [6]
  solubility at 2 h: ≥ 920 µg/mL
[3]; [7]
  solubility at 2 h: ≥ 920 µg/mL
[4]
  remaining at 1 h, 1 µM: 74%
  remaining at 2 h, 1 µM: 63%
  remaining at 4 h, 1 µM: 43%

## Cc1cccc2c(C[C@@H]3NC(=O)CCCCCCCCCCCCCNC(=O)CC[C@@H](C(=O)N[C@@H](CC(N)=O)C(=O)N[C@@H](Cc4cccnc4)C(=O)N(C)CC(N)=O)NC(=O)C(C)(C)NC(=O)[C@H](Cc4ccc5ccccc5c4)NC(=O)[C@H](Cc4ccc(OCCN(C)C)cc4)NC(=O)C4(CCOCC4)NC(=O)[C@H](CCC(N)=O)NC3=O)c[nH]c12 [compound 1] ([X1][Trp(7-Me)]Q[Thp]Y(Me2NCH2CH2)[2Nal][Aib]EN[3Pal][Sar]-NH2; lactam N-8)
[1]
  IC50: 1.14 nM
[2]
  remaining at 1 h, 1 µM: 77%
[3]; [5]
  solubility at 2 h: ≥ 920 µg/mL
[3]; [6]
  solubility at 2 h: < 10 µg/mL
[3]; [7]
  solubility at 2 h: < 10 µg/mL
[4]
  remaining at 1 h, 1 µM: 96%
  remaining at 2 h, 1 µM: 90%
  remaining at 4 h, 1 µM: 90%
